These results are taken from patent US20100256133A1, “NOVEL COMPOUNDS HAVING INDAZOLE FRAMEWORKS, METHODS FOR PREPARING THE SAME AND PHARMACEUTICAL COMPOSITION COMPRISING THE SAME” (priority 2007, published 2010).

Molecules are shown by their SMILES.

The target in the experiment is T1, GSK3β (Homo sapiens, UniProt P49841).
T1 construct: made in house; host or cells: Sf21 insect cells
The experiment in a line: Assay for inhibitory activity against GSK3β (Kinase-Glo luminescence). The format is biochemical. The following applies: 750 nM ATP, 4 μM GSY-2 phosphopeptide; for inhibition at 25 µM: compound at 25 μM; for inhibition at 25 µM / inhibition at 50 µM: vs control without compound; for inhibition at 50 µM: compound at 50 μM. The method, then:
The compounds of the present invention were assayed for inhibitory activity against GSK3β. The GSK-3 is implicated in the incidence of various diseases including diabetes, Alzheimer's disease, CNS disorders and hypertrophic cardiomyopathy.
GSK3β was purified from Sf21 cells using a procedure described in the literature, R. Dajani et. al. (Cell 2001, […], 721-732). GSK3β activity was examined at room temperature in 50 μl of 40 mM Tris-HCl, pH7.4, 10 mM MgCl2, 1 mM DTT, 0.2 mM EDTA, 200 μM NaVO3, 10 mM β-glyceralphosphate, 1 mM EGTA buffer containing 750 nM ATP and 4 μM GSY-2 phosphopeptide (substrate). After incubation at room temperature for […], Kinase-Glo reagent (Promega) was added to reaction mixtures of Preparation Examples 1-1 to 1-12, 1-80 to 1-90, and 1-92. The well plates were incubated at room temperature for […] to stabilize luminescent signals. The luminescent intensity, reflecting the quantity of ATP, was recorded using a counter (Wallac Victor 1420 multilabel counter) and used to determine % inhibition of GSK3β as compared to ATP level in the control to which none of the compounds of the present invention were added.

T1 sequence (P49841 whole entry): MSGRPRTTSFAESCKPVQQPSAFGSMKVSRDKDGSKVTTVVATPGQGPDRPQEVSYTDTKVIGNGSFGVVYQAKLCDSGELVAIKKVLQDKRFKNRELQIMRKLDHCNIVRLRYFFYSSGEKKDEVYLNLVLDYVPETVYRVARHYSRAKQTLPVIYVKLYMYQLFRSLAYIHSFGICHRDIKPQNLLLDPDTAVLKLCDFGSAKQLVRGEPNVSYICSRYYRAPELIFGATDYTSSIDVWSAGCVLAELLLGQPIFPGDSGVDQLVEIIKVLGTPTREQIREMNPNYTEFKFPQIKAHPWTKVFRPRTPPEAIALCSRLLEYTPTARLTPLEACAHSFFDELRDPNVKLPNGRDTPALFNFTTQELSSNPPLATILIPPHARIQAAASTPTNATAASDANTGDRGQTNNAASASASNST

Consider `COc1ccn2ncc(-c3nc4c(cc3F)c(NC(=O)c3ccccc3)nn4CCO)c2c1` [Example 1-92], for which the inhibition at 25 µM was found to be 117%.
Still for that read-out and setting: the same measure for `O=C(Nc1nn(CCO)c2nc(-c3cnn4ccccc34)c(F)cc12)c1ccccc1` [Example 1-89]: 1.5%.
Regarding `O=C(Cc1ccc(F)cc1)Nc1nn(CCO)c2nc(-c3cnn4ccccc34)c(F)cc12` [Example 1-86], the inhibition at 25 µM is 47.9% and the inhibition at 50 µM is 86.5%.
For the molecule `CC(=O)OCCn1nc(NC(=O)C2CCCC2)c2cc(F)c(-c3cnn4ccccc34)nc21` [Example 1-85], the IC50 amounted to 34.9 µM, the inhibition at 25 µM came out at 68.6% and the inhibition at 50 µM came out at 90.1%.
Consider `CC(=O)OCCn1nc(NC(=O)Cc2ccc(F)cc2)c2cc(F)c(-c3cnn4ccccc34)nc21` [Example 1-95], for which the inhibition at 25 µM turned out to be 53.2% and the inhibition at 50 µM came out at 78.9%.
On to `COc1ccn2ncc(-c3nc4[nH]nc(N)c4cc3F)c2c1` [Example 1-12], for which the inhibition at 25 µM worked out at 87.7%.
For the molecule `O=C(Nc1nn(C(=O)C2CCCC2)c2nc(-c3cnn4ccccc34)c(F)cc12)C1CCCC1` [Example 1-94], the inhibition at 25 µM stood at 41.7% and the inhibition at 50 µM was 87.2%.
In the same order, the values of `CC(=O)OCCn1nc(NC(=O)c2ccc(F)cc2)c2cc(F)c(-c3cnn4c(C)cccc34)nc21` [Example 1-81] are 81.9% and 97.5%.
On to `COc1ccn2ncc(-c3nc4c(cc3F)c(N)nn4CCOC(C)=O)c2c1` [Example 1-83], for which the inhibition at 25 µM was found to be 81.2% and the inhibition at 50 µM worked out at 87.2%.
As for `CC(=O)OCCn1nc(N)c2cc(F)c(-c3cnn4ccccc34)nc21` [Example 1-82], the inhibition at 25 µM amounted to 64.5% and the inhibition at 50 µM came to 80.4%.
On the same counts, the results for `Cc1cccc2c(-c3nc4[nH]nc(NC(=O)c5cccc(C#N)c5)c4cc3F)cnn12` [Example 1-5] are 35.1% and 78%.
In the same order, the values of `Cc1cccc2c(-c3nc4c(cc3F)c(NC(=O)c3ccc(F)cc3)nn4C(=O)c3ccc(F)cc3)cnn12` [Example 1-93] are 51.6% and 88.6%.
For the molecule `O=C(Cc1ccc(F)cc1)Nc1n[nH]c2nc(-c3cnn4ccccc34)c(F)cc12` [Example 1-10], the IC50 came out at 14.4 µM, the inhibition at 25 µM stood at 77.4% and the inhibition at 50 µM is 90.7%.
Take `Cc1cccc2c(-c3nc4[nH]nc(NC(=O)C5CC5)c4cc3F)cnn12` [Example 1-3]: the inhibition at 25 µM is 11.6% and the inhibition at 50 µM worked out at 53.1%.
Consider `CC(=O)OCCn1nc(NC(=O)C2CC2)c2cc(F)c(-c3cnn4ccccc34)nc21` [Example 1-84], for which the inhibition at 25 µM worked out at 24.4% and the inhibition at 50 µM came to 49.5%.
In the case of `CC(=O)OCCn1nc(NC(=O)c2ccccc2)c2cc(F)c(-c3cnn4ccccc34)nc21` [Example 1-88], the inhibition at 25 µM is 23%.
Take `COc1ccn2ncc(-c3nc4[nH]nc(NC(=O)C5CC5)c4cc3F)c2c1` [Example 1-8]: the inhibition at 25 µM amounted to 37.7% and the inhibition at 50 µM worked out at 61.6%.
Take `Cc1cccc2c(-c3nc4[nH]nc(NC(=O)C5CCCC5)c4cc3F)cnn12` [Example 1-4]: the inhibition at 25 µM worked out at 63.8% and the inhibition at 50 µM was 82.1%.
For the molecule `Nc1nn(CCO)c2nc(-c3cnn4ccccc34)c(F)cc12` [Example 1-87], the inhibition at 25 µM turned out to be 26.7%.
For `COc1ccn2ncc(-c3nc4[nH]nc(NC(=O)Cc5ccc(F)cc5)c4cc3F)c2c1` [Example 1-9], the midpoint of inhibition, the IC50, lay at 20 µM; the inhibition at 25 µM was 58.2%; the inhibition at 50 µM was found to be 94.6%.
Turning to `O=C(Nc1n[nH]c2nc(-c3cnn4ccccc34)c(F)cc12)C1CC1` [Example 1-1], the IC50 was 10.2 µM, the inhibition at 25 µM amounted to 80.8% and the inhibition at 50 µM is 96.3%.
In the case of `COc1ccn2ncc(-c3nc4c(cc3F)c(N)nn4CCO)c2c1` [Example 1-90], the inhibition at 25 µM worked out at 116%.
For `Cc1cccc2c(-c3nc4[nH]nc(NC(=O)Cc5ccc(F)cc5)c4cc3F)cnn12` [Example 1-6], the inhibition at 25 µM worked out at 48.3% and the inhibition at 50 µM was 70.8%.
With `O=C(Nc1n[nH]c2nc(-c3cnn4ccccc34)c(F)cc12)C1CCCC1` [Example 1-2], 14.9 µM corresponded to half-maximal inhibition (IC50), the inhibition at 25 µM was determined as 76.9% and the inhibition at 50 µM was 95.3%.
With `Nc1n[nH]c2nc(-c3cnn4ccccc34)c(F)cc12` [Example 1-11], the inhibition at 25 µM is 30%.
With `CC(=O)OCCn1nc(N)c2cc(F)c(-c3cnn4c(C)cccc34)nc21` [Example 1-80], the inhibition at 25 µM is 19.7% and the inhibition at 50 µM was determined as 37.8%.
For `Cc1cccc2c(-c3nc4[nH]nc(NC(=O)c5ccc(N(C)C)cc5)c4cc3F)cnn12` [Example 1-7], the IC50 turned out to be 13.3 µM, the inhibition at 25 µM is 71.2% and the inhibition at 50 µM was 92.3%.
